The chains are these.
B1: Aromatase (Homo sapiens) (protein)
chain: MVLEMLNPIHYNITSIVPEAMPAATMPVLLLTGLFLLVWNYEGTSSIPGPGYCMGIGPLISHGRFLWMGIGSACNYYNRVYGEFMRVWISGEETLIISKSSSMFHIMKHNHYSSRFGSKLGLQCIGMHEKGIIFNNNPELWKTTRPFFMKALSGPGLVRMVTVCAESLKTHLDRLEEVTNESGYVDVLTLLRRVMLDTSNTLFLRIPLDESAIVVKIQGYFDAWQALLIKPDIFFKISWLYKKYEKSVKDLKDAIEVLIAEKRRRISTEEKLEECMDFATELILAEKRGDLTRENVNQCILEMLIAAPDTMSVSLFFMLFLIAKHPNVEEAIIKEIQTVIGERDIKIDDIQKLKVMENFIYESMRYQPVVDLVMRKALEDDVIDGYPVKKGTNIILNIGRMHRLEFFPKPNEFTLENFAKNVPYRYFQPFGFGPRGCAGKYIAMVMMKAILVTLLRRFHVKTLQGQCVESIQKIHDLSLHPDETKNMLEMIFTPRNSDRCLEH

What is called IC50 is the concentration that inhibits the measured activity by half. Low readings indicate inhibition by little substance, high ones a need for much substance. A word on the Ki: it is a measure of affinity in units of concentration, obtained from inhibition or displacement. The kinact is the maximal first-order rate at which the target is inactivated. A word on the Km: it is the substrate concentration at which the rate is half of its maximum.

In one series the target is T1, Aromatase (Homo sapiens, UniProt P11511).
T1 sequence (P11511 whole entry): B1 chain
The series can be described thus: (§1) Binding affinity for Cytochrome P450 19A1.
For the molecule `C[C@]12CCC3C(CCC4=C(O)C(=O)CC[C@@]43C(F)F)C1CCC2=O` (stereo partly specified), the IC50 turned out to be 3300 nM.

Take `Clc1ccc(COC(Cn2cccc2)c2ccc(Cl)cc2Cl)cc1` (stereo unspecified): the IC50 amounted to 30 nM.

For a further series, the target named is T2, Aromatase (Rattus norvegicus, UniProt P22443).
T2 sequence (P22443 whole entry): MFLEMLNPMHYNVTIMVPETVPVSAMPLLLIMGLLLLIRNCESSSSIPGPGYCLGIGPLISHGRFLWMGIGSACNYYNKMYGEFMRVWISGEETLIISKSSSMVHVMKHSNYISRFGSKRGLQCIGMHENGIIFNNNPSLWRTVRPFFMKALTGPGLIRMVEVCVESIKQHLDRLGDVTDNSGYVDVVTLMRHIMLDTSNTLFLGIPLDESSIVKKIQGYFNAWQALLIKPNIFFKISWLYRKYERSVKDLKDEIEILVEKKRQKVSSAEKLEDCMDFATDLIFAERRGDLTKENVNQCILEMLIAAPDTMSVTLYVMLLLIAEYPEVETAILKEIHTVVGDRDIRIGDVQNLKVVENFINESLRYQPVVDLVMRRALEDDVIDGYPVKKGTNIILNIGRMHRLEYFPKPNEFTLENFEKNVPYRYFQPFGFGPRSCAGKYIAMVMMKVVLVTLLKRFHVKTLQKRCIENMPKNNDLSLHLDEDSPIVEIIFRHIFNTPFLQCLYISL
The series is described as §1.
In turn, `Clc1ccc(C2c3ccc(Cl)cc3-c3ncncc32)cc1` (stereo unspecified) showed a Ki of 24 nM.

The target of a further series is T1, Aromatase.
Turning to `C=C[C@]12CCC(=O)C=C1CCC1C2CC[C@]2(C)C(=O)CCC12` (stereo partly specified), the affinity corresponds to a Ki of 3 nM.

`C[C@]12CCC(=O)C(O)=C1CC[C@@H]1[C@@H]2CC[C@]2(C)C(=O)CC[C@@H]12` [FORMESTANE]: the Ki turned out to be 50 nM.

Molecule `C=C1C=C2CCC3C(CC[C@]4(C)C(=O)CCC34)[C@@]2(C)CC1` (stereo partly specified) displayed a Ki of 4.7 nM.

As for `CCC[C@]12CCC(=O)C=C1CCC1C2CC[C@]2(C)C(=O)CCC12` (stereo partly specified), the Ki came to 3000 nM.

Molecule `CC1(C)C[C@@]2(C)C(=CC1=O)CCC1C2CC[C@]2(C)C(=O)CCC12` (stereo partly specified) registered a Ki of 2.3 nM.

Turning to `C[C@]12CCC(=O)C=C1[C@H](Br)CC1C2CC[C@@]2(C)C1CC[C@@H]2OC(=O)CBr` (stereo partly specified), the Ki was found to be 25000 nM.

Regarding `C[C@]12C=CC(=O)C=C1CCC1C2CC[C@]2(C)OC(=O)CCC12` (stereo partly specified), the Ki amounted to 35000 nM.

Take `C[C@]12CCC(=O)C=C1C[C@@H](Sc1ccc(I)cc1)C1C2CC[C@]2(C)C(=O)CCC12` (stereo partly specified): the Ki turned out to be 12 nM.

Consider `C[C@]12CCC(=O)C=C1C[C@@H](Sc1ccc(NC(=O)CBr)cc1)C1C2CC[C@]2(C)C(=O)CCC12` (stereo partly specified), for which affinity was put at a Ki of 33000 nM.

`C[C@]12CCC3C(CCC4=CC(=O)CC[C@@]43C(F)F)C1CCC2=O` (stereo partly specified) returned a Ki of 1 nM.

`C[C@]12C=CC(=O)C=C1C=C[C@@H]1[C@@H]2CC[C@]2(C)C(=O)CC[C@@H]12` displayed a Ki of 180 nM.

For `C[C@]12CCC3C(CCC4=CC(=O)CC[C@]43C3CS3)C1CCC2=O` (stereo partly specified), the Ki was 1 nM.

In the case of `CC[C@]12CCC(=O)C=C1CCC1C2CC[C@]2(C)C(=O)CCC12` (stereo partly specified), the Ki is 9 nM.

With `O=c1cc(-c2ccccc2)oc2c1ccc1ccc(O)cc12`, the Ki was 5 nM.

In the case of `C/C=C/[C@]12CCC(=O)C=C1CCC1C2CC[C@]2(C)C(=O)CCC12` (stereo partly specified), the Ki turned out to be 56 nM.

`CSC[C@]12CCC(=O)C=C1CCC1C2CC[C@]2(C)C(=O)CCC12` (stereo partly specified) yielded a Ki of 1 nM.

Consider `C[C@@]12CCCC1C1CCC3=CC(=O)C=C[C@]3(C)C1CC2` (stereo partly specified), for which the affinity, expressed as Ki, was 1100 nM.

Take `C[C@]12CCC3C(CCC4=CC(=O)CC[C@@]43C3CS3)C1CCC2=O` (stereo partly specified): affinity was put at a Ki of 75 nM.

`C[C@]12CCC(=O)C(N)=C1CCC1C2CC[C@]2(C)C(=O)CCC12` (stereo partly specified) had a Ki of 37 nM.

The target of the next series is T1, Aromatase. The series can be described thus: Time-dependent irreversible inactivation of human placental Cytochrome P450 19A1.
`C[C@]12CCC(=O)C=C1[C@H](Br)CC1C2CC[C@@]2(C)C1CC[C@@H]2OC(=O)CBr` (stereo partly specified): the kinact is 0.000457 s⁻¹.

On to `C[C@]12CCC(=O)C=C1C[C@@H](Sc1ccc(NC(=O)CBr)cc1)C1C2CC[C@]2(C)C(=O)CCC12` (stereo partly specified), for which the kinact was 0.00247 s⁻¹.

Regarding `C[C@]12CCC3C(CCC4=CC(=O)CC[C@@]43C(F)F)C1CCC2=O` (stereo partly specified), the kinact was 0.000383 s⁻¹.

`C[C@]12CCC(=O)C=C1C[C@@H](Sc1ccc(N=[N+]=[N-])cc1)C1C2CC[C@]2(C)C(=O)CCC12` (stereo partly specified): the kinact is 0.00166 s⁻¹.

A further series has as its target T2, Aromatase.
For `Cn1nnc2ccc(C(c3ccc(Cl)cc3)n3cncn3)cc21` (stereo not drawn) [rac-VOROZOLE], the IC50 worked out at 3 nM.

Substrate in another series: C[C@]12CCC(=O)C=C1CCC1C2CC[C@@]2(C)C1C[C@@H](O)[C@@H]2O
Described as §1. On the set-up: species or system Homo sapiens.
Consider B1, for which the Km was determined as 58 µM.

Substrate in the next series: C[C@]12CCC(=O)C=C1CC[C@@H]1[C@@H]2CC[C@]2(C)C(=O)CC[C@@H]12
The description is as §1. On the set-up: species or system Homo sapiens.
Regarding B1, the Km was 0.03 µM.

Substrate in the next series: C[C@]12CCC(=O)C=C1CC[C@@H]1[C@@H]2CC[C@]2(C)C(=O)CC[C@@H]12
The series can be described thus: (§2) Km for Cytochrome P450 19A1.
Regarding B1, the Km is 0.06 µM.

Substrate in the next series: C[C@]12CC[C@H]3[C@@H](CCC4=CC(=O)CC[C@@]43C)[C@@H]1CC[C@@H]2O
The series is described as §2.
Turning to B1, the Km was found to be 0.21 µM.

These data come from ChEMBL document CHEMBL1124997, “Mechanism and inhibition of cytochrome P-450 aromatase” (J Med Chem, 1990).
